In ChEMBL document CHEMBL1201862, “PubChem BioAssay data set” (2004):
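Cells were grown in 96-well plates and exposed to each compound for 48 hours at five concentrations; endpoints were interpolated linearly between bracketing concentrations, or set to the highest concentration if not reached. Here, GI50 denotes the concentration required for 50% inhibition of growth.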 Calls of active or inactive are those of the source. Cut-off read from the data, not from the text of the source: active = GI50 up to about 1.1 µM and inactive = higher.

Legend:
Assay in all cases: DTP human tumour cell line panel, 48 h
NCI-H226 = system: NCI-H226
T47D = system: T47D
SF-268 = system: SF-268
PC-3 = system: PC-3
KM12 = system: KM12
OVCAR-4 = system: OVCAR-4
MDA-N = system: MDA-N
SK-MEL-28 = system: SK-MEL-28
MCF7 = system: MCF7
NCI-H522 = system: NCI-H522
UACC-62 = system: UACC-62
SNB-19 = system: SNB-19
A549 = system: A549
DU-145 = system: DU-145
K562 = system: K562
786-0 = system: 786-0
SF-295 = system: SF-295
HL-60 = system: HL-60
SK-OV-3 = system: SK-OV-3

| Structure (SMILES) | GI50 (NCI-H226) | GI50 (T47D) | GI50 (SF-268) | GI50 (PC-3) | GI50 (KM12) | GI50 (OVCAR-4) | GI50 (MDA-N) | GI50 (SK-MEL-28) | GI50 (MCF7) | GI50 (NCI-H522) | GI50 (UACC-62) | GI50 (SNB-19) | GI50 (A549) | GI50 (DU-145) | GI50 (K562) | GI50 (786-0) | GI50 (SF-295) | GI50 (HL-60) | GI50 (SK-OV-3) |
| --- | --- | --- | --- | --- | --- | --- | --- | --- | --- | --- | --- | --- | --- | --- | --- | --- | --- | --- | --- |
| CC1C(=O)N=C2C(=CN(Cc3ccccc3)c3ccccc32)C(=O)N1C (stereo unspecified) | > 100 µM (inactive) | > 100 µM (inactive) | > 100 µM (inactive) | > 100 µM (inactive) | > 100 µM (inactive) | > 100 µM (inactive) | > 100 µM (inactive) | > 100 µM (inactive) | > 100 µM (inactive) | 29.1 µM (inactive) | > 100 µM (inactive) | > 100 µM (inactive) | > 100 µM (inactive) | > 100 µM (inactive) | 1.44 µM (inactive) | > 100 µM (inactive) |  |  |  |
| NNC(=O)CC(=O)Nc1ccccc1Cl |  | > 100 µM (inactive) | > 100 µM (inactive) | > 100 µM (inactive) | > 100 µM (inactive) | > 100 µM (inactive) | > 100 µM (inactive) | > 100 µM (inactive) | > 100 µM (inactive) | > 100 µM (inactive) | > 100 µM (inactive) | > 100 µM (inactive) | > 100 µM (inactive) | > 100 µM (inactive) | > 100 µM (inactive) | > 100 µM (inactive) | > 100 µM (inactive) | > 100 µM (inactive) | > 100 µM (inactive) |
| O=C1CSC(c2cccc(Cl)c2)N1c1c(O)c(Cl)cc(Br)c1Cl (stereo unspecified) | 30.2 µM (inactive) | 17.1 µM (inactive) | 57.8 µM (inactive) | 36.1 µM (inactive) | 34 µM (inactive) | 14.9 µM (inactive) | 17.1 µM (inactive) | > 100 µM (inactive) | 15.6 µM (inactive) |  | 22.6 µM (inactive) | > 100 µM (inactive) | 53.3 µM (inactive) | > 100 µM (inactive) | 45.2 µM (inactive) | 25.5 µM (inactive) | > 100 µM (inactive) | 25.8 µM (inactive) | > 100 µM (inactive) |
| CCOC(=O)c1c(-c2ccc(OC)cc2)c(C#N)c(=S)n(C2OC(COC(C)=O)C(OC(C)=O)C(OC(C)=O)C2OC(C)=O)c1-c1ccccc1 (stereo unspecified) |  | > 100 µM (inactive) | > 100 µM (inactive) | > 100 µM (inactive) | > 100 µM (inactive) | > 100 µM (inactive) | > 100 µM (inactive) | > 100 µM (inactive) | > 100 µM (inactive) |  | > 100 µM (inactive) | > 100 µM (inactive) | > 100 µM (inactive) | > 100 µM (inactive) | > 100 µM (inactive) | > 100 µM (inactive) | > 100 µM (inactive) | > 100 µM (inactive) | > 100 µM (inactive) |
| COc1cc(C2SCC(=O)N2NC(=O)c2ccc(NC(C)=O)cc2OC)ccc1O (stereo unspecified) |  | 67.1 µM (inactive) | 23.7 µM (inactive) | 37.4 µM (inactive) |  | > 100 µM (inactive) | > 100 µM (inactive) | > 100 µM (inactive) | 51.5 µM (inactive) | > 100 µM (inactive) | > 100 µM (inactive) | 30.3 µM (inactive) | 54.2 µM (inactive) | 21 µM (inactive) | > 100 µM (inactive) | 31.3 µM (inactive) | 20.5 µM (inactive) | 54.2 µM (inactive) | 6.27 µM (inactive) |
| Cc1c(CCN2CCOCC2)c(N2CCOCC2)n2c(nc3ccccc32)c1C#N | > 10 µM (inactive) | > 10 µM (inactive) | > 10 µM (inactive) | > 10 µM (inactive) | > 10 µM (inactive) | > 10 µM (inactive) | > 10 µM (inactive) | > 10 µM (inactive) | > 10 µM (inactive) |  | > 10 µM (inactive) | > 10 µM (inactive) | > 10 µM (inactive) | > 10 µM (inactive) | > 10 µM (inactive) | 8.95 µM (inactive) | > 10 µM (inactive) | > 10 µM (inactive) | > 10 µM (inactive) |
| Cc1[nH]c2ncn(Nc3ccccc3)c(=N)c2c1Cc1ccccc1 | > 55 µM (inactive) | 1.07 µM (active) | > 100 µM (inactive) | 23.4 µM (inactive) | 5.31 µM (inactive) | > 27.5 µM (inactive) | 0.191 µM (active) |  | 5.45 µM (inactive) |  | 0.0254 µM (active) | > 51.3 µM (inactive) | 1.48 µM (inactive) | 35.4 µM (inactive) | 0.0578 µM (active) | 66.1 µM (inactive) |  | 1.73 µM (inactive) | > 100 µM (inactive) |
| COc1ccc(/C=C2\CSC/C(=C\c3ccc(OC)c(OC)c3OC)C2=O)c(OC)c1OC | > 100 µM (inactive) | > 100 µM (inactive) | 41.6 µM (inactive) | 47.3 µM (inactive) | 32.4 µM (inactive) |  | 30.3 µM (inactive) | 28.1 µM (inactive) | 65 µM (inactive) |  | 14.9 µM (inactive) | > 100 µM (inactive) | > 100 µM (inactive) | > 100 µM (inactive) | 23.1 µM (inactive) | 22.3 µM (inactive) | 25.4 µM (inactive) | 29.2 µM (inactive) | > 100 µM (inactive) |
| COC(=O)C1=C(O)C(C(=O)OC)[C@]2(O)[C@H](C(=O)OC)[C@H]1C[C@@H](c1ccc(OC)c(OC)c1)[C@H]2C(=O)OC (stereo partly specified) | 4.79 µM (inactive) | 15.9 µM (inactive) |  | 25.4 µM (inactive) | 21.1 µM (inactive) | 29.6 µM (inactive) | 7.13 µM (inactive) | 19.2 µM (inactive) | 17.3 µM (inactive) |  | 22.9 µM (inactive) | 14.6 µM (inactive) | 11.6 µM (inactive) | 19.9 µM (inactive) | 13.6 µM (inactive) | 39.8 µM (inactive) | 17.9 µM (inactive) | 7.83 µM (inactive) | 17.6 µM (inactive) |
| O=C(CCCCCCCCC(=O)NN1C(=O)/C(=C\c2ccc(O)c(O)c2)SC1c1ccc(Cl)cc1)NN1C(=O)/C(=C\c2ccc(O)c(O)c2)SC1c1ccc(Cl)cc1 (stereo unspecified) | 59.3 µM (inactive) | 31.9 µM (inactive) | 8.67 µM (inactive) | 20.6 µM (inactive) | 23.8 µM (inactive) | 31.9 µM (inactive) | > 88.1 µM (inactive) | > 54.7 µM (inactive) | 38.8 µM (inactive) | 2.87 µM (inactive) | 14.2 µM (inactive) | 16.9 µM (inactive) | 21.3 µM (inactive) | 19.9 µM (inactive) | 21.6 µM (inactive) | 7.55 µM (inactive) | 16.2 µM (inactive) |  | 22.6 µM (inactive) |
| CCOP(=O)(OCC)/C(=C/c1ccccc1)CC(C)=O | > 100 µM (inactive) | > 100 µM (inactive) | > 100 µM (inactive) | > 100 µM (inactive) | > 100 µM (inactive) | > 100 µM (inactive) | > 100 µM (inactive) | > 100 µM (inactive) | > 100 µM (inactive) |  | > 100 µM (inactive) | > 100 µM (inactive) | > 100 µM (inactive) | > 100 µM (inactive) | > 100 µM (inactive) | > 100 µM (inactive) | > 100 µM (inactive) | 22.1 µM (inactive) | > 100 µM (inactive) |
| COc1ccc(-c2nc(SCC(=O)N/N=C/c3ccc(N(C)C)cc3)[nH]c2-c2ccc(OC)cc2)cc1 |  | 10.6 µM (inactive) | > 100 µM (inactive) | 44.8 µM (inactive) | 32.6 µM (inactive) | > 100 µM (inactive) | 76.9 µM (inactive) | > 100 µM (inactive) | 13.5 µM (inactive) | 31.3 µM (inactive) | 46.7 µM (inactive) | > 100 µM (inactive) | 17.6 µM (inactive) | 78.5 µM (inactive) | 18.5 µM (inactive) | 57.7 µM (inactive) | 37 µM (inactive) | 11.5 µM (inactive) | > 100 µM (inactive) |
| CC(C)(C)C(=O)C(Cc1ccccc1)C(=O)C(C)(C)C | > 100 µM (inactive) | 25.5 µM (inactive) | > 100 µM (inactive) | 46.7 µM (inactive) | > 100 µM (inactive) | 66.1 µM (inactive) | > 100 µM (inactive) | > 100 µM (inactive) | > 100 µM (inactive) | 98.4 µM (inactive) |  | > 100 µM (inactive) | > 100 µM (inactive) | > 100 µM (inactive) | 55 µM (inactive) | > 100 µM (inactive) | > 100 µM (inactive) | 30.5 µM (inactive) | 23.2 µM (inactive) |
| C(=N\NC1=NCCN1)/c1ccc(-c2cn3cc(/C=N/NC4=NCCN4)ccc3n2)cc1 |  | > 100 µM (inactive) | 9.79 µM (inactive) | 22.9 µM (inactive) | > 44 µM (inactive) | 31 µM (inactive) | > 49 µM (inactive) |  | 2.2 µM (inactive) | 10.9 µM (inactive) | 40.6 µM (inactive) | > 43.1 µM (inactive) | 10.2 µM (inactive) | 16.6 µM (inactive) | 14.6 µM (inactive) | 19 µM (inactive) | > 44.8 µM (inactive) | 4.48 µM (inactive) | > 100 µM (inactive) |
| c1ccc(C/C(=N\Nc2nc3ccccc3[nH]2)c2ccccn2)cc1 | < 0.0279 µM (active) | < 0.01 µM (active) | 0.0444 µM (active) | < 0.01 µM (active) | 0.16 µM (active) | < 0.01 µM (active) | 0.262 µM (active) | 0.231 µM (active) | < 0.01 µM (active) | < 0.01 µM (active) | 0.147 µM (active) | 0.254 µM (active) | 0.069 µM (active) | 0.291 µM (active) | 0.0228 µM (active) | 0.0316 µM (active) | 1.92 µM (inactive) |  | 0.033 µM (active) |
